In patent publication US20250313574A1, “SIALIC ACID DERIVATIVES AND METHODS OF USING SAME” (EISAI R&D MANAGEMENT CO., LTD., priority 2022, published 2025):

Legend:
[1] = biological target: Recombinant Human Siglec-3/CD33 protein (His-CD33) (Homo sapiens (Human), UniProt P20138); assay: Differential scanning fluorimetry (DSF) thermal shift assay; format: binding
[2] = biological target: Recombinant human CD33 protein (Homo sapiens (Human), UniProt P20138); assay: CD33 competitive binding assay for HTS drug screen (fluorescent multivalent sialic acid probe)
Procedure, shortened: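 Inhibition was read as reduced retention of a fluorescent multivalent sialic acid complex (final 5 μM neutravidin, 15 μM A-375, 5 μM biotin-4-FITC) on plate-immobilized human CD33. Compound was added first, the probe followed for 30 min at room temperature in PBS with 0.2% Tween-20 and 0.5% BSA, and FITC was measured after a wash.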

[3] = thermal melt shift of 0.5 μM CD33 protein with 50 μM compound
[4] = difference in thermal melt of CD33 protein (0.5 μM) with 50 μM compound

Sequence of Recombinant Human Siglec-3/CD33 protein (His-CD33) (P20138 18-259): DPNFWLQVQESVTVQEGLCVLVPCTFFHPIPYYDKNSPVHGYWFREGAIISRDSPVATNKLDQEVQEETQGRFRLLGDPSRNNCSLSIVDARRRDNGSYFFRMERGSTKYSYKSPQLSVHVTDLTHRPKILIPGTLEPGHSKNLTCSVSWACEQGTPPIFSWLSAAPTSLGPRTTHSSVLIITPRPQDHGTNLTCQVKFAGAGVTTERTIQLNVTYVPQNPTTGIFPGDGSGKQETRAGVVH
Sequence of Recombinant human CD33 protein (P20138 18-259): as above

Row | Structure (SMILES) | DSF (dTmD) [1, 3] | EC50 [2] [nM] | DSF (dTmD) [1, 4] [°C]
1 | CC(=O)N[C@H]1[C@H]([C@H](O)[C@H](O)CNC(=O)c2cccc(Cl)c2)O[C@@](CCN2CCOC[C@@]23CCN(C(=O)OC(C)(C)C)C3)(C(=O)O)C[C@@H]1O [A-182] | 11.7 | 73 | 
2 | CC(=O)N[C@H]1[C@H]([C@H](O)[C@H](O)CNC(=O)c2cccc(N(C)C)c2)O[C@@](CCN2CCOC[C@@]23CCN(C(=O)OC(C)(C)C)C3)(C(=O)O)C[C@@H]1O [A-183] | 10.3 | 173 | 
3 | CC(=O)Nc1ccc(C(=O)NC[C@@H](O)[C@@H](O)[C@@H]2O[C@@](CCN3CCOC[C@@]34CCN(C(=O)OC(C)(C)C)C4)(C(=O)O)C[C@H](O)[C@H]2NC(C)=O)cc1 [A-184] | 6.0 | 1090 | 
4 | CC(=O)N[C@H]1[C@H]([C@H](O)[C@H](O)CNC(=O)c2cc(F)c(F)c(F)c2)O[C@@](CCN2CCOC[C@@]23CCN(C(=O)OC(C)(C)C)C3)(C(=O)O)C[C@@H]1O [A-185] | 5.0 | 3600 | 
5 | CC(=O)N[C@H]1[C@H]([C@H](O)[C@H](O)CNC(=O)c2ccc(Cl)c(Cl)c2)O[C@@](CCN2CCOC[C@@]23CCN(C(=O)OC(C)(C)C)C3)(C(=O)O)C[C@@H]1O [A-186] | 10.8 | 127 | 
6 | CC(=O)N[C@H]1[C@H]([C@H](O)[C@H](O)CNC(=O)c2ccccc2)O[C@@](CCN2CCOC[C@@]23CCN(C(=O)OC(C)(C)C)C3)(C(=O)O)C[C@@H]1O [A-187] | 6.8 | 1010 | 
7 | CC(=O)N[C@H]1[C@H]([C@H](O)[C@H](O)CNC(=O)c2cc(C)on2)O[C@@](CCN2CCOC[C@@]23CCN(C(=O)OC(C)(C)C)C3)(C(=O)O)C[C@@H]1O [A-188] | 4.5 | 2080 | 
8 | CC(=O)N[C@H]1[C@H]([C@H](O)[C@H](O)CNC(=O)c2cnc(O)c(C)c2)O[C@@](CCN2CCOC[C@@]23CCN(C(=O)OC(C)(C)C)C3)(C(=O)O)C[C@@H]1O [A-189] | 9.8 | 150 | 
9 | CC(=O)N[C@H]1[C@H]([C@H](O)[C@H](O)CNC(=O)c2cc(C)cc(C)c2)O[C@@](CCN2CCOC[C@@]23CCN(C(=O)OC(C)(C)C)C3)(C(=O)O)C[C@@H]1O [A-190] | 10.1 | 119 | 
10 | CC(=O)N[C@H]1[C@H]([C@H](O)[C@H](O)CNC(=O)c2cc(C)c(=O)n(C)c2)O[C@@](CCN2CCOC[C@@]23CCN(C(=O)OC(C)(C)C)C3)(C(=O)O)C[C@@H]1O [A-191] | 9.4 | 163 | 
11 | CC(=O)N[C@H]1[C@H]([C@H](O)[C@H](O)CNC(=O)c2cc(C)c(F)c(C)c2)O[C@@](CCN2CCOC[C@@]23CCN(C(=O)OC(C)(C)C)C3)(C(=O)O)C[C@@H]1O [A-192] | 12.1 | 47 | 
12 | CC(=O)N[C@H]1[C@H]([C@H](O)[C@H](O)CNC(=O)c2cc(C)c(O)c(C)c2)O[C@@](C/C=C/C2CCN(C(=O)OC(C)(C)C)C2)(C(=O)O)C[C@@H]1O (some centres unmarked) [A-194] | 11.7 | 26 | 

The next lines start with the values.

Row | DSF (dTmD) [1, 3] | EC50 [2] [nM] | DSF (dTmD) [1, 4] [°C] | Structure (SMILES)
13 | 10.8 | 42 |  | CC(=O)N[C@H]1[C@H]([C@H](O)[C@H](O)CNC(=O)c2cc(C)c(O)c(C)c2)O[C@@](C/C=C/C2(C)CCN(C(=O)OC(C)(C)C)C2)(C(=O)O)C[C@@H]1O (some centres unmarked) [A-195]
14 | 7.7 | 257 |  | CC(=O)N[C@H]1[C@H]([C@H](O)[C@H](O)CNC(=O)c2cc(C)c(O)c(C)c2)O[C@@](CCCC2(C)CCN(C(=O)OC(C)(C)C)C2)(C(=O)O)C[C@@H]1O (some centres unmarked) [A-196]
15 |  | 131 | 8.7 | CC(=O)N[C@H]1[C@H]([C@H](O)[C@H](O)CNC(=O)c2cc(C)c(O)c(C)c2)O[C@@](CCN2CCOC[C@@]23CCN(C(=O)OC(C)(C)C)C3)(C(=O)O)C[C@]1(C)O [A-200]
16 |  | 1720 | 6.2 | CC(=O)N[C@H]1[C@H]([C@H](O)[C@H](O)CNC(=O)c2cc(C)c(O)c(C)c2)O[C@@](CCN2CCOC[C@@]23CCN(C(=O)OC(C)(C)C)C3)(C(=O)O)C[C@@]1(C)O [A-201]
17 |  | 311 | 5.46 | Cc1cc(C(=O)NC[C@@H](O)[C@@H](O)[C@H]2C[C@@H](O)C[C@](CCN3CCOC[C@@]34CCN(C(=O)OC(C)(C)C)C4)(C(=O)O)O2)cc(C)c1O [A-202]
18 |  | 582 | 5.0 | CC(=O)N[C@H]1[C@H]([C@H](O)[C@](C)(O)CNC(=O)c2cc(C)c(O)c(C)c2)O[C@@](CCN2CCOC[C@@]23CCN(C(=O)OC(C)(C)C)C3)(C(=O)O)C[C@@H]1O [A-204]
19 |  | 1820 | 3.5 | CC(=O)N[C@H]1[C@H]([C@H](O)[C@@](C)(O)CNC(=O)c2cc(C)c(O)c(C)c2)O[C@@](CCN2CCOC[C@@]23CCN(C(=O)OC(C)(C)C)C3)(C(=O)O)C[C@@H]1O [A-205]
20 |  | > 100000 | 0.1 | COC(=O)[C@@]1(CCN2CCOC[C@@]23CCN(C(=O)OC(C)(C)C)C3)CCC[C@H](C[C@H](O)CNC(=O)c2cc(C)c3[nH]ccc3c2)O1 [A-206, tert-butyl (S)-6-(2-((2S,6R)-6-((S)-2-hydroxy-3-(7-methyl-1H-indole-5-carboxamido)propyl)-2-(methoxycarbonyl)tetrahydro-2H-pyran-2-yl)ethyl)-9-oxa-2,6-diazaspiro[4.5]decane-2-carboxylate]
21 |  | 3750 | 5.0 | COC(=O)[C@@]1(CCN2CCOC[C@@]23CCN(C(=O)OC(C)(C)C)C3)CCC[C@H](C[C@H](O)CNC(=O)c2cc(C)c3[nH]ccc3c2)O1 [A-207]
22 |  | 55 | 9.3 | CC(=O)NC1[C@H]([C@H](O)[C@H](O)CNC(=O)c2cc(C)c(O)c(C)c2)O[C@@](CC(=O)N2CCOC[C@]23CCN(C(=O)OC(C)(C)C)C3)(C(=O)O)C[C@@H]1O (some centres unmarked) [A-220]
23 |  | 162 | 7.0 | CC(=O)NC1[C@H]([C@H](O)[C@H](O)CNC(=O)c2cc(C)c(O)c(C)c2)O[C@@](CC(=O)N2CCOC[C@@]23CCN(C(=O)OC(C)(C)C)C3)(C(=O)O)C[C@@H]1O (some centres unmarked) [A-221]
24 |  | 123 | 8.9 | CC(=O)NC1[C@H]([C@H](O)[C@H](O)CNC(=O)c2cc(C)c(O)c(C)c2)O[C@@](CC(=O)N2CCOC[C@@]23CCN(C(=O)NC(C)(C)C)C3)(C(=O)O)C[C@@H]1O (some centres unmarked) [A-223]
25 |  | 143 | 8.9 | CC(=O)N[C@H]1[C@H]([C@H](O)[C@H](O)CNC(=O)c2cc(C)c(O)c(C)c2)O[C@@](C[C@H]2COC[C@]3(CCN(C(=O)OC(C)(C)C)C3)N2)(C(=O)O)C[C@@H]1O [A-224]
26 |  | 552 | 6.4 | CC(=O)N[C@H]1[C@H]([C@H](O)[C@H](O)CNC(=O)c2cc(C)c(O)c(C)c2)O[C@@](C[C@@H]2COC[C@]3(CCN(C(=O)OC(C)(C)C)C3)N2)(C(=O)O)C[C@@H]1O [A-225]
27 |  | 12 | 14.6 | CC(=O)N[C@H]1[C@H]([C@H](O)[C@H](O)CNC(=O)c2cc(C)c(O)c(C)c2)O[C@@](C[C@H]2COC[C@@]3(CCN(C(=O)OC(C)(C)C)C3)N2)(C(=O)O)C[C@@H]1O [A-227]
28 |  | 14 | 13.4 | CC(=O)N[C@H]1[C@H]([C@H](O)[C@H](O)CNC(=O)c2cc(C)c(O)c(C)c2)O[C@@](C[C@H]2COC[C@@]3(CCN(C(=O)NC(C)(C)C)C3)N2)(C(=O)O)C[C@@H]1O [A-228]
